Experimental data taken from ChEMBL document CHEMBL1136325, “Synthesis and biological evaluation of GABA derivatives able to cross the blood-brain barrier in rats” (2003).
Activity calls are given as the source filed them. The rule behind the calls is not given here.

Tests used:
Rattus norvegicus [1] = assay: In vivo pentobarbital (30 mg/kg ip)-induced hypnosis in rats after iv administration at a dose of 92 umol; type: functional
Rattus norvegicus [2] = assay: In vivo pentobarbital (30 mg/kg ip)-induced hypnosis in rats; Moderate dyspnea; type: functional, organism-based
Rattus norvegicus [3] = assay: In vivo pentobarbital (30 mg/kg ip)-induced hypnosis in rats after iv administration at a dose of 23 umol; type: functional
Rattus norvegicus [4] = assay: In vivo pentobarbital (30 mg/kg ip)-induced hypnosis in rats after iv administration at a dose of 46 umol; type: functional
Cavia porcellus [5] = organism: Cavia porcellus; assay: Inhibitory activity against L-glutamate decarboxylase treated from 0.01 to 10 mM concentrations of the compound; Inactive
Rattus norvegicus [6] = assay: In vivo pentobarbital (30 mg/kg ip)-induced hypnosis in rats after intracerebroventricular administration at a dose of 7.80 uL by pretreatment with atropine (1.0 mg/kg iv); type: functional
Rattus norvegicus [7] = assay: In vivo pentobarbital (30 mg/kg ip)-induced hypnosis in rats after intracerebroventricular administration at a dose of 1.95uL; type: functional
Cavia porcellus [8] = organism: Cavia porcellus; assay: Effect on ileal tone in guinea pig up to 100 uM; No effect; type: functional
Rattus norvegicus [9] = assay: In vivo pentobarbital (30 mg/kg ip)-induced hypnosis in rats after intracerebroventricular administration at a dose of 7.80 uL; type: functional
Rattus norvegicus [10] = assay: In vivo pentobarbital (30 mg/kg ip)-induced hypnosis in rats after iv administration at a dose of 184 umol; type: functional
Rattus norvegicus [11] = assay: In vivo pentobarbital (30 mg/kg ip)-induced hypnosis in rats after intracerebroventricular administration at a dose of 3.90 uL; type: functional
Rattus norvegicus [12] = assay: In vivo pentobarbital (30 mg/kg ip)-induced hypnosis in rats after intracerebroventricular administration at a dose of 15.6 uL by pretreatment with atropine (1.0 mg/kg iv); type: functional
Rattus norvegicus [13] = assay: In vivo pentobarbital (30 mg/kg ip)-induced hypnosis in rats after intracerebroventricular administration at a dose of 15.6 uL; type: functional
Cavia porcellus [14] = organism: Cavia porcellus; assay: Inhibitory activity against L-glutamic decarboxylase treated from 0.01 to 10 mM concentrations of the compound; Inactive
Rattus norvegicus [15] = assay: In vivo pentobarbital (30 mg/kg ip)-induced hypnosis in rats after iv administration at a dose of 368 umol; type: functional
[16] = target: GABA-B receptor (Homo sapiens) (UniProt Q9UBS5+O75899); assay: Antagonistic potency against Gamma-aminobutyric acid type B receptor of guinea pig ileum; type: functional, tissue-based; conditions: Cavia porcellus, target entry is the homologue from another species

Structure (SMILES) | Hypnosis duration (Rattus norvegicus [1]) | Hypnosis duration (Rattus norvegicus [3]) | Hypnosis duration (Rattus norvegicus [4]) | Ileal activity (Cavia porcellus [8]) | Hypnosis duration (Rattus norvegicus [10]) | Hypnosis duration (Rattus norvegicus [11]) | other results
C[n+]1cccc(C(=O)NCCCC(=O)OCc2ccccc2)c1.[I-] | 194 min | 156 min | 207 min |  |  |  | Hypnosis duration (Rattus norvegicus [2]): Moderate dyspnea
CN1C=CC(CC2C=CN(C)C=C2C(=O)NCCCC(=O)[O-])C(C(=O)NCCCC(=O)[O-])=C1.[Na+].[Na+] (centres undefined) | 149 min |  |  | inactive | 80 min | 142 min | Activity (Cavia porcellus [5]): inactive; Hypnosis duration (Rattus norvegicus [6]): 184 min; Hypnosis duration (Rattus norvegicus [7]): 147 min; Hypnosis duration (Rattus norvegicus [9]): 60 min
NCCCC(=O)O [GAMMA-AMINOBUTYRIC ACID] |  |  |  |  | 128 min | 188 min | 
COS(=O)(=O)[O-].C[n+]1cccc(C(=O)NCCCC(=O)O)c1 |  |  |  | inactive |  |  | Hypnosis duration (Rattus norvegicus [12]): 158 min; Hypnosis duration (Rattus norvegicus [13]): 100 min; Activity (Cavia porcellus [14]): inactive; Hypnosis duration (Rattus norvegicus [15]): 153 min
CN1C=CC(CC2C=CN(C)C=C2C(=O)NCCCC(=O)OCc2ccccc2)C(C(=O)NCCCC(=O)OCc2ccccc2)=C1 (centres undefined) |  | 206 min | 257 min |  |  |  | Effect (Cavia porcellus [8]): inactive; Adverse effect (Rattus norvegicus [2]): Moderate dyspnea; pD2 [16]: 5.59
